According to BindingDB's records for doi:10.1016/j.bmcl.2003.11.084 (Liaoning Normal University, 2004):

How the values were obtained:
[1] = Inhibitory activity against the wheat germ DNA topoisomerase I
[2] = Inhibitory activity against the calf thymus DNA topoisomerase I
[3] = Inhibitory activity against the wheat germ DNA topoisomerase I; remark: listed apart in the source

Row | IC50 [1] [µM] | IC50 [2] [µM] | IC50 [3] [µM] | SMILES
1 | 50 |  |  | c1coc(-c2cc(-c3cccs3)nc(-c3cccs3)c2)c1 [4-Furan-2-yl-2,6-di-thiophen-2-yl-pyridine]
2 |  | 200 | < 10 | C(=C\c1ccco1)/c1cc(-c2ccco2)cc(-c2cccs2)n1 [4-Furan-2-yl-2-((E)-2-furan-2-yl-vinyl)-6-thiophen-2-yl-pyridine]
3 | 400 |  |  | c1coc(-c2ccnc(-c3cccs3)c2)c1 [4-Furan-2-yl-2-thiophen-2-yl-pyridine]
